# Results taken from US6573271B2, “Method of preventing proliferation of retinal pigment epithelium by retinoic acid receptor agonists” (John Hopkins University School of Medicine, priority 1995, dated 2003).
# Columns and labels:
# RPE cells = test: RPE cell morphology after 10 days in retinoid; format: cell-based, human; conditions: 1 μm, 5% serum, on plastic
# [1] = test system: rabbit cell injection model of PVR; test: Rabbit cell injection model of PVR (RPE cells), intravitreous injection of retinoids; format: in vivo; conditions: for Any RD (%) / Total RD (%): 28 Days
# Method: Briefly, pigmented rabbits were anesthetized with a subcutaneous injection of 5 mg/kg of xylazine and 25 mg/kg of ketamine, and the pupil of one eye was dilated with 2½% phenylephrine. Under direct observation 5×10^5 RPE cells were injected into the vitreous cavity just anterior to the optic nerve. […] .
# Rabbits were examined by indirect ophthalmoscopy on days 7, 14 and 28 and traction retinal detachments were graded. […] . The localized clouds decreased in size and cleared over 2 to 3 weeks. There were no visible changes in the retina. […] .
# It was felt that the hair loss and possibly the loss of appetite and death were due to systemic toxicity from drug that had gotten out of the eye. […] . None of the rabbits experienced hair loss and none died; their appetites appeared to be normal.
# RXRα = target: T1, RXRα (Homo sapiens, UniProt P19793); test: Transactivation, ER/RXR-α hybrid receptor + ERE-CAT reporter cotransfected in HeLa cells
# T1 sequence (P19793 227-458 limits assumed): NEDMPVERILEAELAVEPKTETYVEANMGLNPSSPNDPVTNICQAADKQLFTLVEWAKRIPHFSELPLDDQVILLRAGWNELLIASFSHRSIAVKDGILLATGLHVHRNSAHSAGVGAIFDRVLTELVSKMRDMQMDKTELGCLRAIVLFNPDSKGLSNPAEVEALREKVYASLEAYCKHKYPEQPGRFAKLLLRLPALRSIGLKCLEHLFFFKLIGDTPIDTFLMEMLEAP
# human RPE cells = test: [3H]thymidine incorporation / proliferation of cultured human RPE cells; conditions: for effect on RPE cell proliferation, agent alone: FIG. 3, alone
# From the text: Primary cultures of human retinal pigment epithelium (RPE) cells were established from eyes obtained from the Old Dominion Eye Bank (Richmond, Va.) or the Eye Bank of Maryland (Baltimore, Md.) using the technique described in P. A. Campochiaro, et al., Invest.
# For [3H]thymidine incorporation, RPE cells at passage 3 or 4 were lightly trypsinized and plated in 16-mm wells of 24-well plates. The transfected cells were allowed to attach overnight and then the media containing 5% fetal bovine serum (FBS) were supplemented with retinoids or vehicle alone. Stock solutions (10^−3M) of retinoids were prepared in dimethylsulfoxide (DMSO) and stored as frozen aliquots until used; the highest final concentration of DMSO was 0.1% and was also used for control cultures. The media containing freshly prepared retinoids were changed every three days. At 7 or 10 days 2 μCi/ml of [^3H]thymidine (specific activity, 6.7 Ci/mM; New England Nuclear, Boston, Mass.) was added to the cultures and incorporation was measured as previously described (Leschey, supra).
# The potency of retinoid agonists for inhibition of serum stimulated DNA synthesis in human RPE cells was tested. […] The cells were shifted to serum-free media containing the same concentration of retinoid and then pulsed with 10% serum for 18 hours, after which [^3H]thymidine incorporation was measured. Thymidine incorporation for cells grown in control medium was used to calculate the percent inhibition of thymidine incorporation induced by four concentrations of each retinoid (each concentration tested in triplicate) which were then used to generate each line.
# retinas of the rabbits = test: Ocular toxicity after single intravitreous injection, histopathology of retina; format: in vivo, rabbit; conditions: single intravitreous injection of 100 μg, two weeks after injection
# From the text: The rabbits were killed two weeks after injection.
# [2] = test system: traction retinal detachment in rabbits; test: Traction retinal detachment in rabbits after human RPE cells, subconjunctival injection; format: in vivo, rabbit; conditions: subconjunctival 0.3 mg once a day for five days
# From the text: Due to the toxicity of certain RAR agonists and because the effects of retinoids are delayed in onset and reversible, methods for sustained release of the retinoids were investigated. […] The therapeutic effect of the RAR specific agonists was greater than that of RA, which is an agonist for both RXRs and RARs. There were no signs of any toxicity to the retina.
# [3] = test system: traction retinal detachment in rabbits; test: Traction retinal detachment in rabbits after human RPE cells, intravitreal injection of 168 and 299; format: in vivo, rabbit
# [4] = test system: traction retinal detachment in rabbits; test: Traction retinal detachment in rabbits after human dermal fibroblasts, intravitreous lipid microvesicles; conditions: for % Any RD / % Total RD / RD at 7 Days, Partial / RD at 7 Days, Total / RD at 14 Days, Partial / RD at 14 Days, Total / RD at 28 Days, Partial / RD at 28 Days, Total: human dermal fibroblasts
# From the text: In this experiment the retinoid was incorporated into lipid microvesicles utilizing standard techniques.
# [5] = test system: traction retinal detachment in rabbits; test: Traction retinal detachment in rabbits after human dermal fibroblasts, subconjunctival injection
# [6] = test system: traction retinal detachment in rabbits; test: Traction retinal detachment in rabbits after human dermal fibroblasts, subconjunctival lipid microvesicles; format: in vivo, rabbit; conditions: for % Any RD / % Total RD / RD at 7 Days, Partial / RD at 7 Days, Total / RD at 14 Days, Partial / RD at 14 Days, Total / RD at 28 Days, Partial / RD at 28 Days, Total: human dermal fibroblasts
# [7] = 50 μg, single intravitreous injection
# [8] = 100 μg intravitreous, two injections (day 1 and day 2 after cell injection)
# [9] = 100 μg intravitreous, two injections
# [10] = Homo sapiens, RPE, read-out: Percent Inhibition of [3H]thymidine incorporation in RPE cells
compound,measurement,setting,value
"C/C(=C\c1ccc(C(=O)O)cc1)c1ccc2c(c1)C(C)(C)CCC2(C)C [Compound 183, p-[(E)-2-(5,6,7,8-tetrahydro-5,5,8,8-tetramethyl-2-naphthyl)propenyl]-benzoic acid]",RPE cell morphology / cell overgrowth,RPE cells,prevented cell overgrowth
same,Partial RD at 14 Days (number of eyes),[1]; [7],1
same,Partial RD at 28 Days (number of eyes),[1]; [7],1
same,Total RD at 14 Days (number of eyes),[1]; [7],2
same,Total RD at 28 Days (number of eyes),[1]; [7],2
same,Any RD (%),[1]; [7],33+ %
same,Total RD (%),[1]; [7],22%
same,Partial RD at 14 Days (number of eyes),[1]; [8],0
same,Partial RD at 28 Days (number of eyes),[1]; [8],0
same,Total RD at 14 Days (number of eyes),[1]; [8],0
same,Total RD at 28 Days (number of eyes),[1]; [8],0
same,Any RD (%),[1]; [9],0++ %
same,Total RD (%),[1]; [9],0%
same,frequency and severity of traction retinal detachments versus vehicle,"[1]; initial group, intravitreous injections of 100 μg",None of these rabbits developed retinal detachments
same,frequency and severity of retinal detachments versus control,[1]; single intravitreous injection one day after RPE cell injection,fewer (p(0.05) and less severe retinal detachments
same,deaths before completion of the 28 day observation period,"[1]; two intravitreous injections of 100 μg, five rabbits",two rabbits died
same,EC50,RXRα,15 µM
same,inhibition at 0.05 µM,human RPE cells; [10],76.7%
same,inhibition at 0.1 µM,human RPE cells; [10],98.6%
same,inhibition at 1 µM,human RPE cells; [10],98.8%
same,inhibition of RPE cell proliferation,human RPE cells; comment on Table 3,effective inhibitors of RPE cell proliferation
same,"photoreceptor degeneration, histopathology",retinas of the rabbits,Occasional focal areas of photoreceptor degeneration were seen in one eye
"CCOC(=O)c1ccc(C#Cc2ccc3c(c2)C(C)(C)CCS3)nc1 [Compound 168, ethyl 6-[2-(4,4-dimethylthiochroman-6-yl)ethynyl]nicotinate]",% Any RD,[2],16%
same,% Total RD,[2],16%
same,"RD at 7 Days, Partial",[2],0
same,"RD at 7 Days, Total",[2],0
same,"RD at 14 Days, Partial",[2],0
same,"RD at 14 Days, Total",[2],0
same,"RD at 28 Days, Partial",[2],1
same,"RD at 28 Days, Total",[2],0
same,% Any RD,[3],80%
same,% Total RD,[3],8%
same,"RD at 7 Days, Partial",[3],1
same,"RD at 7 Days, Total",[3],0
same,"RD at 14 Days, Partial",[3],1
same,"RD at 14 Days, Total",[3],0
same,"RD at 28 Days, Partial",[3],7
same,"RD at 28 Days, Total",[3],1
same,prevention of traction retinal detachment,[4],very effective in preventing traction retinal detachment
same,% Any RD,[4],29%
same,% Total RD,[4],29%
same,"RD at 7 Days, Partial",[4],0
same,"RD at 7 Days, Total",[4],0
same,"RD at 14 Days, Partial",[4],0
same,"RD at 14 Days, Total",[4],0
same,"RD at 28 Days, Partial",[4],0
same,"RD at 28 Days, Total",[4],2
same,% Any RD,[5],60%
same,% Total RD,[5],20%
same,"RD at 7 Days, Partial",[5],0
same,"RD at 7 Days, Total",[5],0
same,"RD at 14 Days, Partial",[5],0
same,"RD at 14 Days, Total",[5],0
same,"RD at 28 Days, Partial",[5],4
same,"RD at 28 Days, Total",[5],2
same,effect on retinal detachments,[5],decreased the number of retinal detachments and slowed the rate at which they developed
same,inhibition of tractional retinal detachment,[6],substantially more effective at inhibiting tractional retinal detachment
same,% Any RD,[6],33%
same,% Total RD,[6],33%
same,"RD at 7 Days, Partial",[6],0
same,"RD at 7 Days, Total",[6],0
same,"RD at 14 Days, Partial",[6],1
same,"RD at 14 Days, Total",[6],0
same,"RD at 28 Days, Partial",[6],0
same,"RD at 28 Days, Total",[6],2
"C=C1/C(=C\C=C2/CCC[C@]3(C)[C@@H]([C@H](C)CCCC(C)(C)O)CC[C@@H]23)C[C@@H](O)C[C@@H]1O [Compound D3, 1,25-dihydroxyvitamin D3, reference compound]","effect on RPE cell proliferation, agent alone",human RPE cells,did not
"N[C@@H](Cc1cc(I)c(Oc2ccc(O)c(I)c2)c(I)c1)C(=O)O [Compound T3, reference compound]","effect on RPE cell proliferation, agent alone",human RPE cells,did not
"CC1(C)CCOc2ccc(C#Cc3ccc(C(=O)O)cn3)cc21 [Compound 299, 6-[2-(4,4-dimethylchroman-6-yl)ethynyl]nicotinic acid]",% Any RD,[2],0%
same,% Total RD,[2],0%
same,"RD at 7 Days, Partial",[2],0
same,"RD at 7 Days, Total",[2],0
same,"RD at 14 Days, Partial",[2],0
same,"RD at 14 Days, Total",[2],0
same,"RD at 28 Days, Partial",[2],0
same,"RD at 28 Days, Total",[2],0
same,% Any RD,[3],80%
same,% Total RD,[3],40%
same,"RD at 7 Days, Partial",[3],0
same,"RD at 7 Days, Total",[3],0
same,"RD at 14 Days, Partial",[3],1
same,"RD at 14 Days, Total",[3],1
same,"RD at 28 Days, Partial",[3],4
same,"RD at 28 Days, Total",[3],4
same,prevention of traction retinal detachment,[4],not effective
same,% Any RD,[4],100%
same,% Total RD,[4],100%
same,"RD at 7 Days, Partial",[4],0
same,"RD at 7 Days, Total",[4],0
same,"RD at 14 Days, Partial",[4],0
same,"RD at 14 Days, Total",[4],0
same,"RD at 28 Days, Partial",[4],0
same,"RD at 28 Days, Total",[4],3
same,% Any RD,[5],40%
same,% Total RD,[5],0%
same,"RD at 7 Days, Partial",[5],0
same,"RD at 7 Days, Total",[5],0
same,"RD at 14 Days, Partial",[5],0
same,"RD at 14 Days, Total",[5],0
same,"RD at 28 Days, Partial",[5],4
same,"RD at 28 Days, Total",[5],0
same,effect on retinal detachments,[5],decreased the number of retinal detachments and slowed the rate at which they developed
same,% Any RD,[6],63%
same,% Total RD,[6],50%
same,"RD at 7 Days, Partial",[6],0
same,"RD at 7 Days, Total",[6],0
same,"RD at 14 Days, Partial",[6],0
same,"RD at 14 Days, Total",[6],1
same,"RD at 28 Days, Partial",[6],1
same,"RD at 28 Days, Total",[6],4
"CC1=C(/C=C/C(C)=C/C=C/C(C)=C\C(=O)O)C(C)(C)CCC1 [13-cis RA, 13-cis-retinoic acid, reference compound]",IC50,"human RPE cells; read-out: RPE 148 IC50 (50% inhibition of RPE cell growth relative to mock treated RPE cells), measured as in Example 2",0.03 µM
